According to patent US20240400584A1, “COMPOUNDS AND METHODS FOR MODULATING SPLICING” (REMIX THERAPEUTICS INC., priority 2021, published 2024):

Tests used:
[1] = system: HTT; experiment: RT-qPCR splicing assay, HTT AJ/CJ mRNA; format: cell-based, human; settings: Homo sapiens, 24 h, A673 or K562 cells; for IC50: decrease in canonical junction mRNA; for AC50: increase in alternative junction mRNA
Procedure, shortened: (§1)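 A673 or K562 cells were treated for 24 h at 37° C with an 11-point 3-fold compound series (top 10 uM, DMSO ≤0.25%). Lysates underwent RT-qPCR for the canonical (CJ) and alternative-exon (AJ) junctions, normalized to GAPDH, GUSB or PPIA, then to DMSO (ΔΔCt), giving RQ and percentage response.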

[2] = system: MYB; experiment: RT-qPCR splicing assay, MYB AJ/CJ mRNA; format: cell-based; settings: Homo sapiens, A673 or K562 cells, 24 hours; for IC50: decrease in canonical junction mRNA; for AC50: increase in alternative junction mRNA
Procedure, shortened: as §1

[3] = system: HTT; experiment: Gene panel canonical junction qPCR assay, HTT CJ mRNA (Table 7); format: cell-based, human; settings: Homo sapiens, read-out: HTT CJ mRNA decrease IC50
Procedure, shortened: (§2)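 Canonical-junction transcript levels are quantified by RT-qPCR after compound treatment of K562 or A673 cells. Primers or a CY5 probe overlap the exon junction; signals are normalized to GAPDH, GUSB or PPIA and to DMSO, then scaled to a set ΔCt assay window and fitted for IC50.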

[4] = system: SMN2; experiment: Gene panel canonical junction qPCR assay, SMN2 CJ mRNA (Table 7); format: cell-based; settings: Homo sapiens, read-out: SMN2 CJ mRNA decrease IC50
Procedure, shortened: as §2

[5] = system: MYB; experiment: Gene panel canonical junction qPCR assay, MYB CJ mRNA (Table 7); format: cell-based; settings: Homo sapiens, read-out: MYB CJ mRNA decrease IC50
Procedure, shortened: as §2

[6] = system: Target C; experiment: Gene panel canonical junction qPCR assay, Target C CJ mRNA (Table 7); format: cell-based, human; settings: Homo sapiens, read-out: Target C CJ mRNA decrease IC50
Procedure, shortened: as §2

Row | IC50 [1] | IC50 [2] | IC50 [3] | IC50 [4] | IC50 [5] | IC50 [6] | SMILES | AC50 [1] | AC50 [2]
1 | > 10000 nM | > 10000 nM | > 10000 nM | > 10000 nM | > 10000 nM | > 10000 nM | CC(C)Oc1cc(-c2ccc3c(c2)COc2nc(N4CCC(NC(C)(C)C)C4)ccc2-3)cnn1 (centres unmarked) [Compound 263, N-tert-butyl-1-[8-(6-isopropoxypyridazin-4-yl)-6H-isochromeno[3,4-b]pyridin-3-yl]pyrrolidin-3-amine] | > 10000 nM | > 10000 nM
2 | 100 to 1000 nM | 100 to 1000 nM | 100 to 1000 nM | < 100 nM | 100 to 1000 nM | 100 to 1000 nM | COc1cc(-c2ccc3c(c2)COc2nc(N4CCN[C@H](C(C)(C)C)C4)ccc2-3)cnn1 [Compound 317, 5-{3-[(3R)-3-tert-butylpiperazin-1-yl]-6H-isochromeno [3,4-b]pyridin-8-yl}-3-methoxypyridazine] | 100 to 1000 nM | 100 to 1000 nM
3 | 1000 to 10000 nM | > 10000 nM | 1000 to 10000 nM | 1000 to 10000 nM | > 10000 nM | > 10000 nM | CC(C)(C)NC1CCN(c2ccc3c(n2)OCc2cc(-c4ccnnc4)ccc2-3)C1 (centres unmarked) [Compound 272, N-tert-butyl-1-[8-(pyridazin-4-yl)-6H-isochromeno[3,4-b]pyridin-3-yl]pyrrolidin-3-amine] | 1000 to 10000 nM | > 10000 nM
4 | > 10000 nM | 1000 to 10000 nM | > 10000 nM | > 10000 nM | 1000 to 10000 nM | > 10000 nM | c1cc2c(cc1-c1cn[nH]c1)COc1nc(N3CCC34CCNCC4)ccc1-2 [Compound 221, 1-[8-(1H-pyrazol-4-yl)-6H-isochromeno[3,4-b]pyridin-3-yl]-1,7-diazaspiro[3.5]nonane 2,2,2-trifluoroacetate] | > 10000 nM | > 10000 nM
5 | < 100 nM | 100 to 1000 nM | < 100 nM | < 100 nM | 100 to 1000 nM | 100 to 1000 nM | CC1(C)CC(Oc2ccc3c(n2)OCc2cc(-c4cn[nH]c4)c(F)cc2-3)CC(C)(C)N1 [Compound 234] | < 100 nM | 100 to 1000 nM
6 | 100 to 1000 nM | 1000 to 10000 nM | 100 to 1000 nM | 100 to 1000 nM | 1000 to 10000 nM | 1000 to 10000 nM | COc1cc(-c2ccc3c(c2)COc2nc(N4CCC(N(C)C(C)C)C4)ccc2-3)cnn1 (centres unmarked) [Compound 311] | 100 to 1000 nM | 100 to 1000 nM

Row | SMILES | IC50 [1] | IC50 [2] | IC50 [3] | IC50 [4] | IC50 [5] | IC50 [6] | AC50 [1] | AC50 [2]
7 | CN(c1ccc2c(n1)OCc1cc(-n3cc(N)cn3)ccc1-2)[C@@H]1C[C@H]2CC[C@@H](C1)N2 [Compound 172] | 100 to 1000 nM | 100 to 1000 nM | 100 to 1000 nM | < 100 nM | 100 to 1000 nM | 100 to 1000 nM | 100 to 1000 nM | 100 to 1000 nM
8 | CN(c1ncc2c(n1)OCc1cc(-c3cnnc(O)c3)ccc1-2)C1CC(C)(C)NC(C)(C)C1 [Compound 277, 5-{3-[methyl(2,2,6,6-tetramethylpiperidin-4-yl)amino]-6H-isochromeno[3,4-d]pyrimidin-8-yl}pyridazin-3-ol] | 100 to 1000 nM | 1000 to 10000 nM | 100 to 1000 nM | 100 to 1000 nM | 1000 to 10000 nM | 1000 to 10000 nM | 100 to 1000 nM | 1000 to 10000 nM
9 | COc1cc(-c2ccc3c(c2)COc2nc(N(C)[C@@H]4C[C@H]5CC[C@@H](C4)N5)ncc2-3)cnn1 [Compound 295] | < 100 nM | 100 to 1000 nM | < 100 nM | < 100 nM | 100 to 1000 nM | 100 to 1000 nM | < 100 nM | 1000 to 10000 nM
10 | c1cnn(-c2ccc3c(c2)OCCc2cc(N[C@@H]4C[C@H]5CC[C@@H](C4)N5)ccc2-3)c1 [Compound 139] | > 10000 nM | > 10000 nM | > 10000 nM | > 10000 nM | > 10000 nM | > 10000 nM | > 10000 nM | > 10000 nM
